Source: patent US6485746B1, “Controlled-release sedative-hypnotic compositions and methods related thereto” (Neurocrine Biosciences, Inc., priority 2000, dated 2002)
Values after ≈ are worked out from the molar mass of the structure shown.

Legend:
[1] = Plasma pharmacokinetics of NBI-34060 (half-life, volume of distribution); assay type: in vivo, human
From the text: The mean plasma half-life of a sedative-hypnotic compound may be determined using well known techniques. Terminal half-life may be determined using standard pharmacokinetic calculations, such as those presented by Rolland and Tozer (Clinical Pharmacokinetics Concepts and Applications, 3rd. Ed., Chap. 3, 1995). in addition, software is commercially available which performs this calculation, such as the product sold under the tradename “WinNinlin™”(Prof. Ver. 1.5). […] This is estimated by linear regression analysis of the time vs. log concentration of the test compound.
In this experiment, commercially available plasma profiling software (GastroPlus™) (Simulations Plus Inc., CA.) was used to simulate the effects of varying controlled release profiles and pharmacokinetic parameters based on in vivo plasma concentrations of NBI-34060 as measured in 12-healthy male human subjects. […] This assumed that the lower CL drug would distribute to the same tissues as the higher CL drug, so that all half-life changes were because of differences in metabolism and/or renal clearance rather than in volumes. Two oral plasma concentration-time files were created (NBI-Target-Hi.opd and NBI-Target-Lo.opd) with plasma concentration-time points serving as targets (shown as a square in FIGS. 2, 3, 4 and 5). The requirements for Tmax2 for the high target was set at 100% of Tmax1.

[2] = Solubility in water

In the case of `CC(=O)N(C)c1cccc(-c2ccnc3c(C(=O)c4cccs4)cnn23)c1` [NBI-34060, N-methyl-N-(3-{3-[2-thienylcarbonyl]-pyrazolo-[1,5-a]-pyrimidin-7-yl}-phenyl)acetamide], the half-life ([1]; male, human, plasma half-life) is reported as ~1.3 h, the Vd ([1]; one-compartment pharmacokinetic model, based on in vivo plasma concentrations in 12 healthy male human subjects) is reported as 159 L and the “resulting pH” value ([2]; pH of the solution in water at approximately 20-30 μg/ml) is reported as “approximately 8.0”. It also gave a solubility ([2]; water, pH 8, water) of 20 to 30 µg/mL (≈ 53.1 to 79.7 µM).
